Earlier results, collected in patent US8377484B1, “Tumor encapsulation for prevention and treatment of metastatic cancer disease” (priority 2004, dated 2013).

Tests used:
[1] = test system: human breast cancer cells
[2] = test system: Cultured primary rat Schwann cells
[3] = test system: differentiated C2C12 myotubes

**Q.** For `O=c1c(-c2ccc(O)cc2)coc2cc(O)ccc12` [daidzein], which “inhibition of cancer cells proliferation” value [1] is on record?
**A.** Its value is “inhibit cancer cells proliferation”.

**Q.** What does the source list for `O=c1c(-c2ccc(O)cc2)coc2cc(O)cc(O)c12` [genistein, 5,7,4′-trihydroxyisoflavone]?
**A.** promotion of BM competency ([2]; cell cultures of glial Schwann cells): promote BM competency; inhibition of cancer cells proliferation [1]: inhibit cancer cells proliferation; promotion of BM competency ([3]; cell cultures of differentiated myotubes): promote BM competency

**Q.** With “EHS Laminin-1: major BM structural protein, heterotrimeric laminin from mouse EHS” as the compound, how does the “concentration able to induce BM assembly” value ([2]; cultured cells in vitro) read?
**A.** The value was 2 mkg/ml.

**Q.** And the “time for laminin-based BM to form on myotube surface” value ([3]; incubation with 5-10 microg/ml of laminin-1)?
**A.** Its value is ≤ 4 h.
